Laboratory results published in US20240415819A1, “MACROCYCLIC COMPOUNDS AS PROTEASOME SUBUNIT BETA TYPE-5 INHIBITORS” (Lead Discovery Center GmbH, priority 2021, published 2024).

Key:
[1] = system: HT-29 cells; experiment: CellTiter-Glo luminescent cell viability assay with HT-29 cells (72h incubation); type: cell-based, human; conditions: Homo sapiens, HT-29, HT29 cells, read-out: CTG HT29
Summary of the method: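 400 cells per well in DMEM/10% FCS were dosed after 24 h and kept 72 h at 37 °C, 5% CO2. ATP-based luminescence (CellTiter-Glo) normalized to DMSO and 10 μM staurosporine controls; IC50 by dose-response fit.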

[2] = system: hPMBC; experiment: Chymotrypsin-like ProteasomeGlo assay in hPBMC; type: cell-based; conditions: Homo sapiens; read-out: Pglo hPBMC
From the text: Chymotrypsin-like ProteasomeGlo assay in the B-cells isolated from PBMC's following compound addition (IC50). • 1. PBMC's will be isolated from human blood followed by B-cell isolation from the PBMC's using the Miltenyi Isolation Kit. • 2. This experiment will use the Chymotrypsin-like ProteasomeGlo read-out to generate IC50's following compound treatment. • 3. Dilute all compounds 1:100 for the assay. • 4. […] Repeat the DMSO transfer with lane 12. • 5. Lane 12 should not be seeded with any cells. Only medium! • 6. For all steps, make sure the samples and reagents remain cool! • 7. While dealing with the buffy coats, be careful to not let any exposed skin to be in direct contact with the blood.
For the initial steps and to make processing the buffy coats easier, separately process the buffy coats. • a. Cut the tube attached to the buffy coats carefully using a clean, sterile and fresh scalpel. • b. Transfer the blood into 2 individual 50 ml falcons. • c. Add an equal volume of DPBS to the blood in the falcons. • d. Add ˜20 ml of lymphocyte separating medium to two 50 ml falcons. • e. Carefully pour 15-20 ml of the blood+DPBS mix from step c. onto the lymphocyte separating medium from step d. • f. Centrifuge the falcons with the lymphocyte separating medium+blood mix at 800×g for 15 minutes using a swing-out rotor. • g. Following centrifugation, carefully remove the falcons from the centrifuge. • h. The following layers will be observed: • i. Aspirate the plasma layer off carefully without disturbing the different layers. • j. Remove the cell pellet using a pipette into two fresh 50 ml falcons. • k. Fill the falcons with the cells up to 50 ml with DPBS. • l. Centrifuge the falcons at 250×g for 10 minutes using a swing-out rotor (Brake-off). • m. Aspirate the complete DPBS off the cells without disturbing the cell pellet at the bottom of the falcon. • n. Re-suspend the cell pellet in 10 ml of 1×RBC lysis buffer. • o. Incubate the falcons at room temperature in the dark for 10 minutes. • p. After RBC lysis, centrifuge the tubes at 250×g for 10 minutes using a swing-out rotor (brake-off). • (*Note: If the cell pellet is still red or light red, repeat steps n. to p.!) • q. Re-suspend the cell pellet in DPBS up to 50 ml in the falcon. • r. Centrifuge the falcons at 250×g for 10 minutes using a swing-out rotor (Brake-off). • s. Aspirate the DPBS off the cells without disturbing the cell pellet at the bottom of the falcon. • t. Repeat the wash step as described in steps q. to s. 2× times more (total number of washes is 3×). • u. Aspirate the DPBS completely off the cell pellet after the last wash without disturbing the cell pellet. • v. Re-suspend the cell pellet in 20 ml of PBMC cell medium. • w.
• a. Remove the plates with cells from the incubator. • b. Take all the plates including the compound plate, intermediate plate and Staurosporine plate to the ECHO. • c. Click on “Open” in the ECHO software and select the protocol “QLI5_25ul_30 uM-Grenier”. • d. Follow the on-screen prompts and instructions once you click “Start” to insert the compound plate, intermediate plate and destination plates. • e. Change the final number of destination plates on the program. • f. Follow the on-screen prompts and instructions once you click “Start” to load the Staurosporine and destination plates. • g. Once all the compounds, DMSO and Staurosporine have been transferred, place the destination plates in a wet tissue box. • h. Place the destination plates back into the incubator and incubate at 37° C., 5% CO2 for 105 minutes. • i. Re-seal all the compound+Stauro diamond and intermediate plates and store in the dark. Chymotrypsin like ProteasomeGlo Assay • 1. Thaw the components of the ProteasomeGlo assay at room temperature including the ProteasomeGlo Buffer, the lyophilized Luciferin Detection Reagent and the Suc-LLVY-Glo Substrate. • 2. […]

[3] = system: A549 (human lung carcinoma cell line); experiment: Glo assay of A549 cells (Table 3; ProteasomeGlo plating scheme); type: cell-based; conditions: Homo sapiens; A549 cells; read-out: PGLo A549
Summary of the method: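 Compound treatment lasts 105 minutes at 37° C. under 5% CO2. Suc-LLVY-Glo substrate premixed with detection reagent (60 min at room temperature) is then added directly to the cells, and luminescence after 10-15 min in the dark gives the IC50 in nM.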

[4] = molecular target: T1, β5 subunit of the human constitutive proteasome (CPS) (Homo sapiens, UniProt P28074); experiment: β5 inhibition assay, human constitutive proteasome (Suc-LLVY-AMC); type: biochemical; conditions: IC50 class, Suc-LLVY-AMC substrate
T1 construct: purchased Boston Biochem E-360
Description: The enzymatic activity of the β5 subunit of the human constitutive proteasome (CPS) is analyzed. In another assay, which differs from the assay of the human constitutive proteasome only in using the human immunoproteasome (IPS) the enzymatic activity of the β5 subunit of the human immunoproteasome (IPS) is analyzed. […] Inhibition is indicated as IC50 [nM] (“-”=not measured).

[5] = molecular target: T2, β5 subunit of the human immunoproteasome (IPS) (Homo sapiens, UniProt P28062); experiment: β5 inhibition assay, human immunoproteasome (Suc-LLVY-AMC); type: biochemical; conditions: IC50 class, Suc-LLVY-AMC substrate
T2 construct: purchased Boston Biochem E-370
Summary of the method: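 Human immunoproteasome (1 nM final) was preincubated 10 min at RT with compound in 100 mM HEPES pH 7.5, 50 mM NaCl, 0.02% SDS, 1 mM DTT. Suc-LLVY-AMC (22.6 μM final) was then added for 4 h at RT in the dark. After stopping with 1 μM bortezomib, AMC fluorescence was read (ex 355/em 460 nm).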

[6] = system: MM1 S (B lymphoblast cell line); experiment: 48 hr CTG viability assay, MM1S; type: cell-based; conditions: Homo sapiens, 48 hr CTG, read-out: MM1S IC50
Summary of the method: (§1)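 Growth inhibition by compound over 48 h; IC50 (nM) derived from duplicate CellTiter-Glo luminescence readings across 0.0015–10 uM.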

[7] = system: RPMI 8226 (B lymphocyte cell line, multiple myeloma); experiment: 48 hr CTG viability assay, RPMI 8226; type: cell-based; conditions: Homo sapiens, RPMI-8226; 48 hr CTG; read-out: RPMI-8226 IC50
Summary of the method: as §1

[8] = system: Hs 746T (human gastric carcinoma cell line); experiment: 48 hr CTG viability assay, Hs 746T; type: cell-based; conditions: Hs746T, 48 hr CTG, read-out: Hs 746T IC50
Summary of the method: as §1

Structure (SMILES)	IC50 [1]	IC50 [2]	IC50 [3]	IC50 [4]	IC50 [5]	IC50 [6]	IC50 [7]	IC50 [8]
CC(=O)N[C@H]1CC(=O)N2CCCC(COc3ccc(C)c(c3)CNC(=O)[C@H](CCc3ccccc3)NC1=O)C2 (stereo partly drawn) [Compound 257, N-((8S,11S)-4^4-methyl-7,10,13-trioxo-8-phenethyl-3-oxa-6,9-diaza-1(3,1)-piperidina-4(1,3)-benzenacyclotridecaphane-11-yl)acetamide]	100 to 500 nM	1 to 5 µM	–	–	–	–	–	–
Cc1ccc2cc1CNC(=O)[C@H](CCc1ccccc1)NC(=O)[C@@H](NC(=O)OCc1ccccc1)CCCC(=O)N1CCC(CO2)C1 (stereo partly drawn) [Compound 351, benzyl ((8S, 11S)-4^4-methyl-7,10,15-trioxo-8-phenethyl-3-oxa-6,9-diaza-1(3,1)-pyrrolidina-4(1,3)-benzenacyclopentadecaphane-11-yl)carbamate]	100 to 500 nM	< 0.1 µM	100 to 500 nM	–	–	–	–	–
Cc1cc2cc(c1C)CNC(=O)[C@H](CCc1ccccc1)NC(=O)[C@@H](NC(=O)OCc1ccccc1)CCCC(=O)NCCCCO2 [Compound 354, benzyl ((12S,15S)-14,15-dimethyl-8,13,16-trioxo-15-phenethyl-2-oxa-7,14,17-triaza-1(1,3)-benzenacyclooctadecaphane-12-yl)carbamate]	100 to 500 nM	< 0.1 µM	–	–	–	–	–	–
Cc1ccc2cc1CNC(=O)[C@H](CCc1ccccc1)NC(=O)[C@@H](NC1CC3C=CC1C3)CC(=O)N1CCCC(CCO2)C1 (stereo partly drawn) [Compound 711, (9S,12S)-12-(bicyclo[2.2.1]hept-5-en-2-ylamino)-5^4-methyl-9-phenethyl-4-oxa-7,10-diaza-1(3,1)-piperidina-5(1,3)-benzenacyclotetradecaphane-8,11,14-trione]	–	–	100 to 500 nM	< 100 nM	< 100 nM	< 100 nM	< 100 nM	100 to 500 nM
Cc1ccc2cc1CNC(=O)[C@H](CCc1ccccc1)NC(=O)[C@@H](NC(=O)CCNCc1cccc(N3CCOCC3)c1)CC(=O)N1CCCC(CCO2)C1 (stereo partly drawn) [Compound 665, N-((9S,12S)-5^4-methyl-8,11,14-trioxo-9-phenethyl-4-oxa-7,10-diaza-1(3,1)-piperidina-5(1,3)-benzenacyclotetradecaphane-12-yl)-3-((3-morpholinobenzyl)amino)propanamide]	–	–	< 100 nM	< 100 nM	< 100 nM	< 100 nM	< 100 nM	< 100 nM
Cc1ccc2cc1CNC(=O)[C@H](CCc1ccccc1)NC(=O)[C@@H](NC(=O)CCNCc1ccc(N3CCN(Cc4ccccc4)CC3)cc1)CC(=O)N1CCCC(CCO2)C1 (stereo partly drawn) [Compound 699, 3-((4-(4-benzylpiperazin-1-yl)benzyl)amino)-N-((9S,12S)-5^4-methyl-8,11,14-trioxo-9-phenethyl-4-oxa-7,10-diaza-1(3,1)-piperidina-5(1,3)-benzenacyclotetradecaphane-12-yl)propanamide]	–	–	< 100 nM	< 100 nM	< 100 nM	< 100 nM	< 100 nM	< 100 nM
Cc1ccc2cc1CNC(=O)[C@H](CCc1ccccc1)NC(=O)[C@@H](NC(=O)CCN1CC3(COC3)C1)CC(=O)N1CCCC(CCO2)C1 (stereo partly drawn) [Compound 660, N-((9S,12S)-5^4-methyl-8,11,14-trioxo-9-phenethyl-4-oxa-7,10-diaza-1(3,1)-piperidina-5(1,3)-benzenacyclotetradecaphane-12-yl)-3-(2-oxa-6-azaspiro[3.3]heptan-6-yl)propanamide]	–	–	< 100 nM	< 100 nM	< 100 nM	< 100 nM	< 100 nM	< 100 nM
Cc1ccc2cc1CNC(=O)[C@H](CCc1ccccc1)NC(=O)[C@@H](NC(=O)CN1CCC1)CC(=O)N1CCCC(CCO2)C1 (stereo partly drawn) [Compound 663, 2-(azetidin-1-yl)-N-((9S,12S)-5^4-methyl-8,11,14-trioxo-9-phenethyl-4-oxa-7,10-diaza-1(3,1)-piperidina-5(1,3)-benzenacyclotetradecaphane-12-yl)acetamide]	–	–	< 100 nM	< 100 nM	< 100 nM	< 100 nM	< 100 nM	< 100 nM

Further lines, results first:

IC50 [1]	IC50 [2]	IC50 [3]	IC50 [4]	IC50 [5]	IC50 [6]	IC50 [7]	IC50 [8]	Structure (SMILES)
100 to 500 nM	> 5 µM	–	–	–	–	–	–	CC(=O)N[C@H]1CC(=O)NCCCOc2ccc(C)c(c2)CNC(=O)[C@H](CCc2ccccc2)NC1=O [Compound 253, N-((9S,12S)-1^4-methyl-7,10,13-trioxo-12-phenethyl-2-oxa-6,11,14-triaza-1(1,3)-benzenacyclopentadecaphane-9-yl)acetamide]
100 to 500 nM	> 5 µM	–	–	–	–	–	–	CC(=O)N[C@H]1CC(=O)N2CC(COc3ccc(C)c(c3)CNC(=O)[C@H](CCc3ccccc3)NC1=O)C2 [Compound 259, N-((8S,11S)-4^4-methyl-7,10,13-trioxo-8-phenethyl-3-oxa-6,9-diaza-1(3,1)-azetidina-4(1,3)-benzenacyclotridecaphane-11-yl)acetamide]
100 to 500 nM	> 5 µM	–	–	–	–	–	–	CC(=O)N[C@H]1CC(=O)N(C)CCCOc2ccc(C)c(c2)CNC(=O)[C@H](CCc2ccccc2)NC1=O [Compound 256, N-((9S,12S)-1^4,6-dimethyl-7,10,13-trioxo-12-phenethyl-2-oxa-6,11,14-triaza-1(1,3)-benzenacyclopentadecaphane-9-yl)acetamide]
100 to 500 nM	> 5 µM	–	–	–	–	–	–	CC(=O)N[C@H]1CC(=O)N2CCC2(C)COc2ccc(C)c(c2)CNC(=O)[C@H](CCc2ccccc2)NC1=O (stereo partly drawn) [Compound 260, N-((8S,11S)-1^2,4^4-dimethyl-7,10,13-trioxo-8-phenethyl-3-oxa-6,9-diaza-1(2,1)-azetidina-4(1,3)-benzenacyclotridecaphane-11-yl)acetamide]
100 to 500 nM	1 to 5 µM	–	> 5000 nM	1000 to 5000 nM	–	–	–	CC(=O)N[C@H]1CC(=O)NCCCCOc2ccc(C)c(c2)CNC(=O)[C@H](CCc2ccccc2)NC1=O [Compound 168, N-((10S,13S)-1^4-methyl-8,11,14-trioxo-13-phenethyl-2-oxa-7,12,15-triaza-1(1,3)-benzenacyclohexadecaphane-10-yl)acetamide]
